In patent publication US12440497B2, “Compositions and methods for enhancing Wnt signaling for treating cancer” (Massachusetts Institute of Technology, priority 2021, dated 2025):
Values joined by “and” are separate entries in the source; they are usually repeats but may differ in a detail not shown here. Equal values may be shown once. “Also recorded” adds a separate entry of the source. Read-outs that look alike come from different tables or passages of the source.

How the values were obtained:
[1] = Body weight of treated mice; type: in vivo; conditions: high dose, in one week
Protocol: In humans, the chemotherapy 5-Fluorouracil is a backbone of colon cancer therapy, however, has significant toxic side effects. Mice tolerate a higher dose of 5-Fluorouracil compared to humans on a per weight per day basis. When a high dose of 5-Fluorouracil is administered to mice, they lose 20% of their total weight in one week (FIG. 12A). […] This is in direct contrast to the improved inhibition of tumor burden and treatment effect identified by using the nanoparticle formulation of LY2090314 (FIGS. 5A-5C).

[2] = system: wildtype colon organoids; experiment: Wildtype colon organoid growth, resazurin viability assay; type: cell-based, Mouse and human; conditions: for ranking by on-target vs off-target function in organoids: order: LY2090314, SAR502250, A-1070722, CHIR 99021; for growth of wildtype colon organoids: resazurin assay
Protocol: (§1) Mouse and human organoids were grown in standard organoid culture systems using MATRIGEL® and Advanced DMEM/F12 media with 5% fetal bovine serum, and GLUTAMAX® supplementation. Dose responses of the labeled drugs were applied to the organoid cultures and resazurin viability assays were performed after 4 days of culture. Relative growth is assessed by conversion of resazurin to resorufin and is shown on the y axis.
To further generalize the approach using different GSK3 inhibitors, two other compounds were identified which via GSK3 inhibition, induce Wnt responses in colon organoids. […] Using primary wildtype colon crypts, the capacity of SAR502250 to promote wildtype organoid growth was evaluated using a resazurin metabolic based assay.

[3] = system: Wnt signaling; experiment: TOP-TdTomato Wnt reporter in wildtype organoids; type: cell-based
[4] = system: organoids that harbor an APC mutation; experiment: Growth of APC-mutant colon cancer organoid genotypes, resazurin assay; type: cell-based; conditions: at all concentrations; also with added KRAS, p53, SMAD4 mutations
Protocol: as §1
Same as FIG. 1, but the genotype of the organoids tested vary instead of being wildtype, they contain the mutations as indicated in the figure description.

[5] = system: Human colon cancers (colon tumor organoid lines); experiment: Human colon tumor organoid dose response, resazurin; type: cell-based; conditions: every human colon cancer, 4 days of culture
Protocol: Human colon cancers were collected from the operating room at MGH. Colon tumor organoids lines were generated from the resections and maintained in standard colon organoid culture conditions. Dose responses of LY2090314 were applied to the various human colon cancers and resazurin cell number counts were performed after 4 days of culture.

[6] = system: colon cancer organoids (AKPVT); experiment: AKPVT colon cancer organoid growth, resazurin based assay; type: cell-based, mouse; conditions: for inhibition of AKPVT colon cancer organoid growth: single agent
Protocol: FIG. 14 is a two-dimensional dose response of RSPO1 by LY2090314 on inhibiting colon cancer organoid growth (AKPVT), assessed by resazurin based assay.
Viability decrease was assessed using a resazurin based metabolic/proliferation assay.

[7] = system: colon cancer organoids; experiment: LY2090314 together with 5-FU on colon cancer organoids; type: cell-based; conditions: combination with 5-FU
Text: LY2090314 was used together with 5-FU on colon cancer organoids. […] The cell killing or tumor inhibition effect of LY2090314 is additive with 5-FU. Thus, LY2090314 can be added to many of the existing chemotherapy regimens for colon cancer with improved outcomes.

[8] = in DMSO; cited from earlier work
[9] = system: β-catenin; conditions: 20 nM; cited from earlier work
[10] = system: GSK3; conditions: cited from earlier work
[11] = system: melanoma cell lines; conditions: cited from earlier work
[12] = rats; cited from earlier work
[13] = dogs; cited from earlier work
[14] = humans; cited from earlier work
[15] = cited from earlier work
[16] = system: A375 xenograft; conditions: 25 mg/kg Q3D, i.v., cited from earlier work

O=c1[nH]cc(F)c(=O)[nH]1 [5-Fluorouracil]
loss of total weight [1]: 20%

COc1ccc2c(NC(=O)Nc3cccc(C(F)(F)F)n3)ccnc2c1 [A-1070722]
ranking by on-target vs off-target function in organoids [2]: best drugs in decreasing order of efficacy

CN1CCN(S(=O)(=O)c2ccc(-c3cnc(N)c(C(=O)Nc4cccnc4)n3)cc2)CC1 [AZD2858]
growth of wildtype colon organoids [2]: capacity to grow normal wildtype organoids; also recorded: clear low nanomolar capacity to support normal colon organoid growth | Wnt response, TOP-TdTomato reporter activity [3]: promote a Wnt response; also recorded: confirmed to be on target Wnt signaling

Cc1c[nH]c(-c2cnc(NCCNc3ccc(C#N)cn3)nc2-c2ccc(Cl)cc2Cl)n1 [CHIR 99021]
ranking by on-target vs off-target function in organoids [2]: best drugs in decreasing order of efficacy

O=C1NC(=O)C(c2cnc3ccccn23)=C1c1cn2c3c(cc(F)cc13)CN(C(=O)N1CCCCC1)CC2 [LY2090314]
ranking by on-target vs off-target function in organoids [2]: best drugs in decreasing order of efficacy | growth of wildtype colon organoids [2]: potently permits the growth; also recorded: general improvement in growth; also recorded: more potent than SAR502250 | growth of organoids that harbor an APC mutation [4]: inhibited the growth | susceptibility of human colon cancer organoids [5]: showed susceptibility | combination effect with a Wnt agonist on tumor organoid growth ([6]; LY2090314 combined with RSPO1): synergistic effect | cell killing or tumor inhibition effect together with 5-FU [7]: additive | solubility [8]: 31 mg/mL and 60.48 mM | induction of Axin2 [9]: induction of Axin2 | stabilization of β-catenin total protein [9]: time-dependent stabilization | fold selectivity relative to a large panel of kinases [10]: highly selective towards GSK3 | activity in cell lines resistant to PLX4032 [11]: remains active | apoptotic cell death ([11]; irrespective of BRAF mutation status): potently induces apoptotic cell death | half-life [12]: approximately 0.4 hours | half-life [13]: ~0.7 h | half-life [14]: 1.8 to 3.4 h | clearance ([15]; approximating hepatic blood flow): high clearance | volume of distribution ([15]; in vivo): 1 to 2 L/kg | Axin2 gene expression in vivo [16]: elevates Axin2 gene expression | single agent activity in the A375 xenograft model [16]: demonstrates single agent activity | effect on efficacy of DTIC ([16]; with DTIC): enhances the efficacy of DTIC

Cn1c(N2CCO[C@@H](c3ccc(F)cc3)C2)nc(-c2ccncn2)cc1=O [SAR502250]
ranking by on-target vs off-target function in organoids [2]: best drugs in decreasing order of efficacy | growth of wildtype colon organoids [2]: capacity to grow normal wildtype organoids; also recorded: can independently permit wildtype organoid growth | inhibition of AKPVT colon cancer organoid growth [6]: more modest inhibition than LY2090314 | Wnt response, TOP-TdTomato reporter activity [3]: promote a Wnt response

B1: RSPO1: concentrated RSPO1, a Wnt agonist (protein, UniProt Q2MKA7 21-263, looked up)
R-spondin-1: SRGIKGKRQRRISAEGSQACAKGCELCSEVNGCLKCSPKLFILLERNDIRQVGVCLPSCPPGYFDARNPDMNKCIKCKIEHCEACFSHNFCTKCKEGLYLHKGRCYPACPEGSSAANGTMECSSPAQCEMSEWSPWGPCSKKQQLCGFRRGSEERTRRVLHAPVGDHAACSDTKETRRCTVRRVPCPEGQKRRKGGQGRRENANRNLARKESKEAGAGSRRRKGQQQQQQQGTVGPLTSAGPA
reduction in viability of colon cancer organoids ([6]; RSPO1 in the presence of low nanomolar LY2090314): more than 40% | inhibition of AKPVT colon cancer organoid growth [6]: modest effect
